{"source": "patent US8535639B2", "about": "“Trifunctional imaging agent for monoclonal antibody tumor-targeted imaging” (The United States of America, as represented by the …, priority 2007, dated 2013)", "target": "T1, EGFR-expressing A431 cells (Homo sapiens, UniProt P00533)", "T1 construct": "host or cells: A431 cells", "T1 sequence (P00533 25-1210)": "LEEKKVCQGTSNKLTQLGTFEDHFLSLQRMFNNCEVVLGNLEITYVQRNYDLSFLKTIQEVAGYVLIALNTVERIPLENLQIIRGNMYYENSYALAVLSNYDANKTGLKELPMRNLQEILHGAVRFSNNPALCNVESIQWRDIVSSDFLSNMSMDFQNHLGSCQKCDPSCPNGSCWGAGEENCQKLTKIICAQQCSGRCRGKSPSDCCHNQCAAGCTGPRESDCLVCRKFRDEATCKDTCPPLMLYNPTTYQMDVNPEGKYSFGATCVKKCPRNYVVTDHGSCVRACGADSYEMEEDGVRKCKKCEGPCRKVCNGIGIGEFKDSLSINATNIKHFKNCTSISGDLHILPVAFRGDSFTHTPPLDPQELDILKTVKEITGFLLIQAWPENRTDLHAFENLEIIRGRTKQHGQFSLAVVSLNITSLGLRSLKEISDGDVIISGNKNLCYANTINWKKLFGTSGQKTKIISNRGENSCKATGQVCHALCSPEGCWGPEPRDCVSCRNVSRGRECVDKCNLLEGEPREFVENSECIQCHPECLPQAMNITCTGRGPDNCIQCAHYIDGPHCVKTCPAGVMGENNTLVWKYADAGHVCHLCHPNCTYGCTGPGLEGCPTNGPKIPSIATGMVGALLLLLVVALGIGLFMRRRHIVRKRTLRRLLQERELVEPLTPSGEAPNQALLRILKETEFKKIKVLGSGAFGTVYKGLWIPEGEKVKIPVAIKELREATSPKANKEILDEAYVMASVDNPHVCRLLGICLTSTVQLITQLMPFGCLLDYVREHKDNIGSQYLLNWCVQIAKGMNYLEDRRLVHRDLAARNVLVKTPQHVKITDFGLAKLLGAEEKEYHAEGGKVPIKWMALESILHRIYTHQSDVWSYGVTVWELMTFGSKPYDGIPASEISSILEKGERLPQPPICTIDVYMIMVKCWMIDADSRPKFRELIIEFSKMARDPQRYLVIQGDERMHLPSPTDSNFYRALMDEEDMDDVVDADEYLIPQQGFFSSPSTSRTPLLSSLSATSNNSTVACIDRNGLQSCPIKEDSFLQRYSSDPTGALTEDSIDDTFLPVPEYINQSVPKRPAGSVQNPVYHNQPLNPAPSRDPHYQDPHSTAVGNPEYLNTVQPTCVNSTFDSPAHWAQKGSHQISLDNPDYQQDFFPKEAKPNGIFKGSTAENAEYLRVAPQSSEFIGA", "test": "Confocal fluorescence microscopy binding", "format": "cell-based", "conditions": "10 ug/mL, 2 hr at 37° C.", "method": "A431, SKOV3, and NIH3T3 cells were obtained from ATCC (Manassas, Va.). The NIH3T3 cells were transfected with HER2 genes (3T3/HER2+), in order to overexpress HER2 receptors (Di Fiore et al., Science 1987, 237, 178-182). All of the cell lines were grown at 37° C. in the presence of 5% CO2 in DMEM medium supplemented with 1% L-glutamine, and 5% FBS. For the confocal fluorescence microscopy experiments cells were plated in Lab-Tek chambered slides (#178599 Nalge Nunc) at an appropriate dilution and allowed to attach overnight at 37° C. prior to treatment. […] The individual cell lines seeded on chambered slides with 60-80% confluency were incubated for 2 hr at 37° C. in the dark. After incubation the cell culture medium was removed and slides were washed three times with PBS (pH=7.4) and immediately fixed in 4% paraformaldehyde prepared in PBS (pH=7.4) for 5 min at room temperature. Fluorescent mounting medium (S3023, DakoCytomation) was added at the time the slide was covered with a cover glass to stabilize the fluorophores before and during confocal microscopy. […] Fluorescence (Cy5.5 or Cy7) and DIC images were collected simultaneously using a 63x Plan-Apochromat 1.4 NA oil immersion objective and a long pass 650 nm emission filter. […]", "data": [{"smiles": "CC[N+]1=C(/C=C/C=C/C=C/C=C2/N(CCCCCC(=O)N[C@@H](CCCCNC(=O)C3CCC(CN4C(=O)CC(SCCCC(=N)NC)C4=O)CC3)C(=O)Nc3ccc(C[C@H](CN(CC(=O)O)[C@H]4CCCC[C@@H]4N(CC(=O)O)CC(=O)O)N(CC(=O)O)CC(=O)O)cc3)c3ccc(S(=O)(=O)O)cc3C2(C)C)C(C)(C)c2cc(S(=O)(=O)[O-])ccc21", "note": "(stereo partly shown) [imaging agent 11]", "values": [{"measurement": "binding / fluorescent labeling", "result": "specifically labels"}]}]}
